Measured values as given in patent US5962493A, “2-mercaptobenzimidazole derivatives and antihyperlipemic agent or antiarteriosclerotic agent containing the same” (priority 1997, dated 1999).

Columns and labels:
Acute Toxicity Test = assay: Acute Toxicity Test; parameters: species or system mouse (8-week ddy); conditions: mouse, in vivo; oral, 0.5% Tween 80 suspension, six 8-week ddy mice, observed for one month
Text: The compound (2) was suspended in 0.5% Tween 80 solution.
The compound I-7 was suspended in 0.5% Tween 80 solution.

total blood cholesterol = assay: Effect of reducing blood lipid of rabbit having high-cholesterol feed; assay type: in vivo, rabbit (male New Zealand white); conditions: 30 mg/kg/day mixed with high-cholesterol food, 14 days; based on the control; group of three rabbits
Description: (2) Effect of reducing blood lipid of rabit having high-cholesterol feed:
A high-cholesterol food (100 g/day/rabbit: ORC-4 of Oriental Yeast Co., Ltd. +0.5% cholesterol +0.5% olive oil) was given to each of male New Zealand white rabbits weighing about 2 kg for seven days to make them suffer from hypercholesterolemia.
In the next stage, the high-cholesterol food was still given to the rabbits and, in addition, 30 mg/kg/day/rabbit of the test compound (2) was continuously given in the form of a mixture thereof with the food to a group of three rabbits (test group) for 14 days. On the other hand, only the same high-cholesterol food as above was given in the equal dose to another group of three rabbits (control group).
After the continuous feeding for 14 days followed by fasting for one day, a small amount of the blood was taken from the parotid vein to determine the total blood cholesterol (latripo TC: a product of latron Co. Ltd.).

[1] = system: mouse peritoneal macrophage; assay: In vitro tests on inhibition of foaming of macrophage with mouse peritoneal macrophage (cholesteryl ester formation); assay type: cell-based, mouse (female ICR); conditions: Table 1, ratio to control, 16 hours at 37° C., read-out: CE (%) (cholesteryl ester-forming rate, ratio to the control)
Description: (1) In vitro tests on inhibition of foaming of macrophage with mouse peritoneal macrophage:
The necks of 15-week old female ICR mice (Japan SLC) were cut off. After blood-letting, Hanks buffer solution (Nissui Seiyaku Co., Ltd.) was injected into the abdominal cavity of each mouse. The abdomen was massaged and then the buffer solution was rapidly recovered, centrifuged at 1000 rotations for 5 minutes to collect the peritoneal macrophages. The peritoneal macrophases thus collected were then suspended in GIT medium (Wako Pure Chemical Industries, Ltd.), and the suspension was spread on a 24-hole microplate. After the cultivation at 37° C. in 5% CO2 for 2 hours, the medium was replaced with a Dulbecoo Modified Eagle's MEM medium (Nissui Seiyaku Co., Ltd.). After the cultivation at 37° C. in 5% CO2 for additional 16 hours, the following substances were added in the following order:
(1) subject: dissolved in DMSO (Wako Pure Chemical Industries, Ltd.)
PC: phosphatidyl choline (a product of Funakoshi)
PS: phosphatidyl serine (ditto)
DCP: dicetyl phosphate (ditto)
CHOL.: cholesterol (Sigma).
After further cultivation at 37° C. in 5% CO2 for 16 hours, the lipid fraction was extracted with chloroform and methanol. The lipid fraction thus extracted was dissolved in isopropyl alcohol, and the formed cholesteryl ester (CE) was determined by an enzymatic coloring method. The cholesteryl ester-forming rate of each compound was calculated in terms of the ratio thereof to the control. The cytotoxicity was examined by microscopic observation of the shape of the cell.
The pharmacological effects of the compounds given in Table 2 were evaluated in the same manner as that of Example 3.

[2] = system: mouse peritoneal macrophage; conditions: Table 1; dose 5 μM; microscopic observation

Row | Structure (SMILES) | LD50 at 730 h (Acute Toxicity Test) [mg/kg] | total blood cholesterol decreasing rate (total blood cholesterol) [%] | activity at 5 µM [1] [%] | Cytotoxicity [2]
1 | c1ccc2[nH]c(SCCCCCSc3nc4ccccc4[nH]3)nc2c1 [Compound I-7, 1,5-bis(2-benzimidazoylthio)pentane] | ≥ 5000 |  |  | 
2 | CCC(=O)n1c(SCCOCCSc2nc3ccccc3n2C(=O)CC)nc2ccccc21 [Compound (2)] | ≥ 5000 | 25 | 7 | none
3 | c1ccc2[nH]c(SCCOCCOCCOCCSc3nc4ccccc4[nH]3)nc2c1 [Compound (22)] |  |  | 22 | none
